Reference: patent US8486996B2, “Aroylfuranes and aroylthiophenes” (Basilea Pharmaceutica AG, priority 2006, dated 2013)
Where two headings read alike, the source gives them in different places.

Key:
Format in all cases: cell-based
tumor cells [1] = test: Mitochondrial membrane potential, JC-1 (read-out 48 h); conditions: JC-1, 48 h
Procedure: D) Mitochondrial Membrane Potential
This assay is performed in 96 well tissue culture plates. Appropriate number of cells (adherent cells: 3-5*10^3, suspension cells: 8-10*10^3) are being seeded out in 80 μl complete medium. Adherent cells are incubated for 24 h for proper spreading out before addition of test compounds while suspension cells are immediately treated with test compounds after seeding out. The test compounds are added in 20 μl complete medium containing max 5% DMSO. […] After 24 h or 48 h incubation at culture conditions, 10 μl medium containing JC-1 (Molecular Probes, T-3168) at 2-5 μg/ml are added to each well. The assay plates are then further incubated for 30 minutes and subsequently analyzed with a standard inverted fluorescence microscope by using the FITC and TRITC filters.
The readout allows the determination of the fraction of cells which show a dissipation of the mitochondrial membrane potential strongly indicating an apoptotic cell death as a function of the treatment. The scores A, B, C and D are explained at the end of the Table.

tumor cells [2] = test: MTS proliferation assay (72 h read-out)
Procedure: B) MTS Proliferation Assay
The assay is performed in 96 well tissue culture plates. The cells (range: 1.5*10^3-10^4) are seeded out in 80 μl complete medium 24 h prior to compound treatment. The test compounds are added in 20 μl complete medium containing max 5% DMSO. The final compound concentrations in the assays are in the range of 0.001 μM-10 μM. The assay plates are incubated for 72 h at culture conditions. The MTS reagent is prepared according to the manufacturer's protocol (Promega G1111). 20 μl MTS reagent are added to each well; the assay plates are quickly spun and incubated for another 3 h at culture conditions. Subsequently, the plates are shortly shaked and absorption measured with a microplate-reader at 492 nm. The scores A, B, C and D are explained at the end of the Table.

[3] = Hoechst 33342 nuclear staining (48 h read-out)
Procedure: (§1) A) Hoechst 33342 Nuclear Staining
(§2) This assay is performed in 96 well tissue culture plates. Appropriate number of cells (adherent cells: 3-5*10^3, suspension cells: 8-10*10^3) are being seeded out in 80 μl complete medium. Adherent cells are incubated for 24 h for proper spreading out before addition of test compounds while suspension cells are immediately treated with test compounds after seeding out. The test compounds are added in 20 μl complete medium containing max 5% DMSO. The final compound concentrations in the assays are in the range of 0.001 μM-10 μM. After 24 h or 48 h incubation at culture conditions, 10 μl medium containing Hoechst 33342 dye (Sigma B-2261) at 2-5 μg/ml are added to each well. The assay plates are then further incubated for 30 minutes and subsequently analyzed with a standard inverted fluorescence microscope.
(§3) The readout allows the determination of the fraction of apoptotic nuclei as well as other morphological criteria specific for apoptosis as a function of the treatment. The scores A, B, C and D are explained at the end of the Table.

tumor cells [4] = test: Hoechst 33342 nuclear staining (48 h read-out)
Procedure: as §1, §2, §3

[5] = HeLa cells, read-out: Mitochondrial membrane potential (read-out 48 h) HeLa
[6] = Jily cells, read-out: Mitochondrial membrane potential (read-out 48 h) Jily
[7] = Jurkat cells, read-out: Mitochondrial membrane potential (read-out 48 h) Jurkat
[8] = MCF7 cells, read-out: Mitochondrial membrane potential (read-out 48 h) MCF7
[9] = HT1080 cells, read-out: MTS proliferation assay IC50, HT1080
[10] = HeLa cells, read-out: MTS proliferation assay IC50, HeLa
[11] = Jily cells, read-out: MTS proliferation assay IC50, Jily
[12] = Jurkat cells, read-out: MTS proliferation assay IC50, Jurkat
[13] = MRC5 cells, read-out: Hoechst 33342 nuclear staining EC50, MRC5
[14] = HeLa cells, read-out: Hoechst 33342 nuclear staining EC50, HeLa
[15] = Jurkat cells, read-out: Hoechst 33342 nuclear staining EC50, Jurkat
[16] = Homo sapiens, HeLa cells, read-out: Mitochondrial membrane potential (read-out 48 h) HeLa
[17] = Homo sapiens, Jurkat cells, read-out: Mitochondrial membrane potential (read-out 48 h) Jurkat
[18] = Homo sapiens, MCF7 cells, read-out: Mitochondrial membrane potential (read-out 48 h) MCF7
[19] = Homo sapiens, HT-1080, HT1080 cells, read-out: MTS proliferation assay IC50, HT1080
[20] = Homo sapiens, HeLa cells, read-out: MTS proliferation assay IC50, HeLa
[21] = Homo sapiens, Jurkat cells, read-out: MTS proliferation assay IC50, Jurkat
[22] = Homo sapiens, MRC5 cells, read-out: Hoechst 33342 nuclear staining EC50, MRC5
[23] = Homo sapiens, HeLa cells, read-out: Hoechst 33342 nuclear staining EC50, HeLa
[24] = Homo sapiens, Jurkat cells, read-out: Hoechst 33342 nuclear staining EC50, Jurkat

SMILES	EC50 (tumor cells [1]; [5]) [µM]	EC50 (tumor cells [1]; [6]) [µM]	EC50 (tumor cells [1]; [7]) [µM]	EC50 (tumor cells [1]; [8]) [µM]	IC50 (tumor cells [2]; [9]) [µM]	IC50 (tumor cells [2]; [10]) [µM]	IC50 (tumor cells [2]; [11]) [µM]	IC50 (tumor cells [2]; [12]) [µM]	EC50 [3, 13] [µM]	EC50 (tumor cells [4]; [14]) [µM]	EC50 (tumor cells [4]; [15]) [µM]	also measured
CCCOc1ccccc1C(=O)c1sc2nc(C)c(C)cc2c1N [Example 133]	0.01 to 0.1	0.01 to 0.1	0.01 to 0.1	> 1	0.01 to 0.1	0.01 to 0.1	0.01 to 0.1	0.01 to 0.1	0.01 to 0.1	0.01 to 0.1	0.01 to 0.1	–
Nc1c(C(=O)c2cc(F)ccc2N2CCOCC2)sc2ncccc12 [Example 125]	> 1	0.1 to 1	0.1 to 1	> 1	> 1	> 1	0.1 to 1	0.1 to 1	> 1	> 1	> 1	–
Nc1c(C(=O)c2cc(F)ccc2N2CCCCC2)sc2ncccc12 [Example 124]	> 1	> 1	> 1	> 1	> 1	> 1	> 1	> 1	> 1	> 1	> 1	–
N#Cc1cnc2sc(C(=O)c3cc(F)ccc3N3CCOCC3)c(N)c2c1 [Example 136]	> 1	0.1 to 1	0.1 to 1	> 1	0.1 to 1	0.1 to 1	0.1 to 1	0.1 to 1	> 1	> 1	0.1 to 1	–
Nc1c(C(=O)c2cc(F)ccc2N2CCOCC2)sc2ncc([N+](=O)[O-])cc12 [Example 129]	> 1	> 1	> 1	> 1	> 1	> 1	> 1	> 1	> 1	> 1	> 1	–
Cc1cc2c(N)c(C(=O)c3cc(F)ccc3N3CCOCC3)sc2nc1C [Example 119, 5,6-Dimethyl-3-amino-2-(2′-N-morpholino-5′-fluorobenzoyl)-thieno[2,3-b]pyridin]	–	0.1 to 1	–	–	–	–	0.01 to 0.1	–	–	–	–	EC50 (tumor cells [1]; [16]): > 1 µM; EC50 (tumor cells [1]; [17]): 0.1 to 1 µM; EC50 (tumor cells [1]; [18]): > 1 µM; IC50 (tumor cells [2]; [19]): 0.01 to 0.1 µM; IC50 (tumor cells [2]; [20]): 0.1 to 1 µM; IC50 (tumor cells [2]; [21]): 0.01 to 0.1 µM; EC50 [3, 22]: 0.01 to 0.1 µM; EC50 (tumor cells [4]; [23]): 0.1 to 1 µM; EC50 (tumor cells [4]; [24]): 0.01 to 0.1 µM
CCCOc1ccc(F)cc1C(=O)c1sc2ncc(N)cc2c1N [Example 128]	> 1	> 1	0.1 to 1	> 1	0.1 to 1	> 1	0.1 to 1	0.1 to 1	0.1 to 1	0.1 to 1	0.1 to 1	EC50 ([3]; PBL, read-out: Hoechst 33342 nuclear staining EC50, PBL): > 1 µM
CCOc1ccc(F)cc1C(=O)c1sc2nc(C)c(C)cc2c1N [Example 118, 5,6-Dimethyl-3-amino-2-(2′-ethoxy-5′-fluorobenzoyl)-thieno[2,3-b]pyridine]	–	0.01 to 0.1	–	–	–	–	0.01 to 0.1	–	–	–	–	EC50 (tumor cells [1]; [16]): 0.1 to 1 µM; EC50 (tumor cells [1]; [17]): 0.01 to 0.1 µM; EC50 (tumor cells [1]; [18]): > 1 µM; IC50 (tumor cells [2]; [19]): 0.01 to 0.1 µM; IC50 (tumor cells [2]; [20]): 0.01 to 0.1 µM; IC50 (tumor cells [2]; [21]): 0.01 to 0.1 µM; EC50 [3, 22]: 0.01 to 0.1 µM; EC50 (tumor cells [4]; [23]): 0.01 to 0.1 µM; EC50 (tumor cells [4]; [24]): 0.01 to 0.1 µM
CCOc1ccc(F)cc1C(=O)c1sc2ncc(C#N)cc2c1N [Example 120, 5-Cyano-3-amino-2-(2′-ethoxy-5′-fluorobenzoyl)-thieno[2,3-b]pyridine]	–	0.1 to 1	–	–	–	–	0.1 to 1	–	–	–	–	EC50 (tumor cells [1]; [16]): > 1 µM; EC50 (tumor cells [1]; [17]): 0.1 to 1 µM; EC50 (tumor cells [1]; [18]): > 1 µM; IC50 (tumor cells [2]; [19]): 0.1 to 1 µM; IC50 (tumor cells [2]; [20]): 0.1 to 1 µM; IC50 (tumor cells [2]; [21]): 0.1 to 1 µM; EC50 [3, 22]: 0.1 to 1 µM; EC50 (tumor cells [4]; [23]): > 1 µM; EC50 (tumor cells [4]; [24]): 0.1 to 1 µM
Nc1c(C(=O)c2ccccc2N2CCCCC2)sc2ncccc12 [Example 121]	> 1	> 1	> 1	> 1	> 1	> 1	> 1	> 1	> 1	> 1	> 1	–
Nc1c(C(=O)c2ccccc2N2CC=CCC2)sc2ncccc12 [Example 123]	> 1	> 1	> 1	> 1	> 1	> 1	> 1	> 1	> 1	> 1	> 1	–
Cc1cc2c(N)c(C(=O)c3ccccc3N3CCOCC3)sc2nc1C [Example 134]	0.01 to 0.1	0.01 to 0.1	0.01 to 0.1	> 1	0.01 to 0.1	0.1 to 1	0.01 to 0.1	0.01 to 0.1	0.1 to 1	0.1 to 1	0.01 to 0.1	–
Nc1cnc2sc(C(=O)c3cc(F)ccc3N3CCOCC3)c(N)c2c1 [Example 130]	0.1 to 1	0.1 to 1	0.1 to 1	> 1	0.1 to 1	0.1 to 1	0.01 to 0.1	0.01 to 0.1	0.1 to 1	0.1 to 1	0.1 to 1	–
Cc1cc2c(N)c(C(=O)c3ccccc3N3CC=CCC3)sc2nc1C [Example 135]	> 1	0.01 to 0.1	0.01 to 0.1	> 1	0.01 to 0.1	0.1 to 1	0.01 to 0.1	0.01 to 0.1	0.1 to 1	0.1 to 1	0.01 to 0.1	–
Nc1c(C(=O)c2ccccc2N2CCOCC2)sc2ncccc12 [Example 122]	> 1	> 1	> 1	> 1	> 1	> 1	> 1	> 1	> 1	> 1	> 1	–
Nc1c(C(=O)c2cc(F)ccc2N2CC=CCC2)sc2ncccc12 [Example 126]	> 1	0.1 to 1	0.1 to 1	> 1	0.1 to 1	> 1	0.1 to 1	0.1 to 1	> 1	> 1	> 1	–
CCCOc1ccc(F)cc1C(=O)c1sc2ncc([N+](=O)[O-])cc2c1N [Example 127]	> 1	> 1	> 1	> 1	> 1	> 1	> 1	> 1	> 1	> 1	> 1	–
Nc1cnc2sc(C(=O)c3ccccc3N3CCOCC3)c(N)c2c1 [Example 132]	> 1	> 1	> 1	> 1	> 1	> 1	0.1 to 1	0.1 to 1	> 1	> 1	0.1 to 1	–
